Source: patent US20240279214A1, “ALPHA4 BETA7 INEGRIN ANTAGONISTS AND USES THEREOF” (XinThera, Inc., priority 2022, published 2024)

What follows are molecules tested against T1, a4b7 integrin interaction with MadCAM-1 (Homo sapiens, UniProt P13612+P26010) (assay: a4b7 Cell Capture Assay (RPMI8866 cells on MAdCAM-1 Fc coated plates)). Settings: 50% human serum, 1 mM MgCl2, 1 hour incubation, CellTiter-Glo luminescence, read-out: a4B7 cell capture assay RMPI8866-MadCAM EC50.
T1 construct: capture of a4b7 integrin expressing cells, RPMI8866; endogenous in cells; host or cells: RPMI8866
T1 sequence (P13612 34-1032): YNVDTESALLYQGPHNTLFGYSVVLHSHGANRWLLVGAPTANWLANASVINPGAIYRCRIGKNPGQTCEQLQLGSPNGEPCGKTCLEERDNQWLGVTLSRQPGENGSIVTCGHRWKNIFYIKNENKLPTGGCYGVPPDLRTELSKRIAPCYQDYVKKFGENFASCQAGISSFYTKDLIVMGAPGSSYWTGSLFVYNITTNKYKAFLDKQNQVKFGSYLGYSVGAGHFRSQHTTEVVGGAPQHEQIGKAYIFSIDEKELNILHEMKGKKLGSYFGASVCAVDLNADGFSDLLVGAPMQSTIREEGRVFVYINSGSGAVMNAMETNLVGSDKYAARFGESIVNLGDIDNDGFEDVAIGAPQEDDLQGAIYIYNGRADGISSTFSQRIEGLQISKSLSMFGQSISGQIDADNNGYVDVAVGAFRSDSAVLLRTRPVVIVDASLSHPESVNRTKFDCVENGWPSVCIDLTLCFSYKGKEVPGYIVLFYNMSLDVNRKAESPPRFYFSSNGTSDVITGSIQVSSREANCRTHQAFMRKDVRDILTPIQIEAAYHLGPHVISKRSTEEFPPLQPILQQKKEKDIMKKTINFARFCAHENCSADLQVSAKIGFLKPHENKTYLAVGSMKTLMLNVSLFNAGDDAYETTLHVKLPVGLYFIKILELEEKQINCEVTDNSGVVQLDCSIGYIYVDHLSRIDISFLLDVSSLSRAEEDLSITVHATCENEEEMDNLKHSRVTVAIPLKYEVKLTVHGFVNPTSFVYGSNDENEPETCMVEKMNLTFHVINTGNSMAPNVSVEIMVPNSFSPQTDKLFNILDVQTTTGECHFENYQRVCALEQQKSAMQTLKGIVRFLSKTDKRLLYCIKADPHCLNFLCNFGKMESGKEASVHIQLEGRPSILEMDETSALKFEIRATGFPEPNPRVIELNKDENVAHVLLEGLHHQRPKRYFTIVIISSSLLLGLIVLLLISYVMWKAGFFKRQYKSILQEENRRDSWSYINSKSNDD
T1 sequence (P26010 20-798): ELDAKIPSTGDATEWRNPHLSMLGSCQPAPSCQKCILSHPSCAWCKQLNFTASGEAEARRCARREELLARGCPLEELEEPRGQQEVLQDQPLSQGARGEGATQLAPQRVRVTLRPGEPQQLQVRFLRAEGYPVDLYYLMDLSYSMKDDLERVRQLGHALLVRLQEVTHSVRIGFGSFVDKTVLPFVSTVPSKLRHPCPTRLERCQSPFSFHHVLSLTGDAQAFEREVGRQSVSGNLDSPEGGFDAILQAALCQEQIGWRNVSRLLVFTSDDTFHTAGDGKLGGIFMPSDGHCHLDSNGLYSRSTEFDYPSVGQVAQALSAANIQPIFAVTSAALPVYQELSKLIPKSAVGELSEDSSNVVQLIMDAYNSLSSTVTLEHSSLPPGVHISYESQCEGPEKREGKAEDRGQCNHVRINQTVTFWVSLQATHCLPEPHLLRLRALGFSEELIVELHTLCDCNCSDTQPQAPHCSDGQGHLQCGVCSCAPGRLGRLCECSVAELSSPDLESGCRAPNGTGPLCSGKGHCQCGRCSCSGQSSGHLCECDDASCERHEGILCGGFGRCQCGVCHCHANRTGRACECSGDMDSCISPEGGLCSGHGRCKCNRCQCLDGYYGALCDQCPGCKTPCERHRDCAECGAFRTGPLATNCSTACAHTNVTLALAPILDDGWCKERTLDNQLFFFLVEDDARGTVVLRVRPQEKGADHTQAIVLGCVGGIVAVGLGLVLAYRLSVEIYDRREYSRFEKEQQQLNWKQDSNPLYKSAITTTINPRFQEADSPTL
Format: cell-based
Method: The potency of inhibitors in preventing a4b7 integrin interaction with MadCAM-1 was measured by monitoring the capture of a4b7 integrin expressing cells, RPMI8866, on recombinant human MAdCAM-1 Fc chimera protein-coated plates. The protein was a fusion between human MAdCAM-1 (Met1-Gln333, Accession #AAY82472) and human IgG1 (Pro100-Lys330)] (R&D Systems, Catalog #6056-MC). 96-well plates (Thermofisher, Catalog #136102) were coated with the recombinant protein by dispensing 100 μL (1.0 μg/mL) per well. After a quick spin to settle down the coating solution using a plate centrifuge, plates were incubated overnight at 4° C. in a moisture chamber. On Day 2, the plates were washed with PBS using a Bluecatbio Blue®Washer (GentleSpin wash, 3 cycles, pressure=1, volume 150 uL). Blocking solution (1.0% BSA in PBS, Sigma, Catalog #A7979) was then added at 200 uL/well, and the plates were quickly spun to settle down blocking buffer and incubated in cell culture incubator at 37° C. and 5% CO2 for 1 hour. The plates were then washed with 0.1% BSA in PBS using a Bluecatbio Blue®Washer (GentleSpin wash, 3 cycles, pressure=1, volume 150 uL). RPMI8866 cells suspended in assay medium (1 mM MgCl2 25 mM HEPES and 50% human serum, Sigma, Catalog #H4522) at a density of 1.0×10^6 cells/mL were added at 100 uL/well. Each compound evaluated was prepared as a DMSO stock solution. Test compounds were evaluated with a 9-point serial dilution curve (1000, 333.3, 111.1, 55.6, 27.8, 13.9, 6.9, 2.3, and 0.77 nM)) and were added to the plates using a Tecan D.30e Digita dispenser, the dispensed stock is 100 nL and the final DMSO concentration is 0.1%. Potent compounds were re-evaluated at a new 9-point serial dilution curve (100, 33.3, 11.1, 5.6, 2.8, 1.4, 0.69, 0.23, and 0.08 nM). Each titration curves were performed in triplicate on the same plate, and most of compounds were retested in different dates multiple times. The plates were shaken at 300 rpm on orbital plate shaker for 3 minutes to mix the cells and compounds, quickly spun to settle the cells and solution, and incubated in cell culture incubator at 37° C. and 5% CO2. After 1 hour incubation, the unbound cells were washed away with RPMI1640 medium supplemented with 1 mM MgCl2 and 1% BSA) (wash buffer) using a Bluecatbio Blue®Washer (MagbeadsSpin wash, 1 cycle, pressure 1, volume=150 uL). After wash buffer removal, A mixture of wash buffer/CellTiter-Glo® Reagent (Pormega, catalog #G7573) at 1:1 (V/V) was added at volume of 100 uL to each well. The plates were placed in a chamber at 25° C. and incubated for 30 minutes. Luminescence was recorded using a Envision plate reader 2105 according to CellTiter-Glo protocol.
The mean luminescence signals from negative control wells without MadCAM-1 coating and compound treatment (cells only) was defined as 100% binding inhibition, and the mean luminescence signals from positive control wells with MadCAM-1 coating but without compound treatment (MadCAM-1 and cells only) was defined as 0% binding inhibition. The luminescence signals from other compound treated wells were normalized in percentage scale accordingly. The normalized mean % inhibition data were plotted against logarithmic compound concentration in nanomolar and were fitted with 4-parameter logistic model to obtain IC50 for each compound.

Compared with `Cc1ccc2c(c1C)-c1cc(C)c(F)c(c1)[C@H](CC(=O)O)NC(=O)[C@@H](n1cc(CCN3CC(F)C3)c(C(F)(F)F)cc1=O)c1cc(ccc1F)O2` (relative stereo) [Example 33, [(14R*,17S)-12,19-difluoro-14-{5-[2-(3-fluoroazetidin-1-yl)ethyl]-2-oxo-4-(trifluoromethyl)pyridin-1-yl}-3,4,20-trimethyl-15-oxo-8-oxa-16-azatetracyclo[16.3.1.1^{9,13}.0^{2,7}]tricosa-1(22),2(7),3,5,9,11,13(23),18,20-nonaen-17-yl]acetic acid], `Cc1cc2cc(c1F)[C@H](CC(=O)O)NC(=O)[C@@H](n1cc(CCN3CC(F)C3)c(C(F)(F)F)cc1=O)c1cc(ccc1F)Oc1cc(F)cc(C)c1-2` (relative stereo) [Example 26, [(14R*,17S)-5,12,19-trifluoro-14-{5-[2-(3-fluoroazetidin-1-yl)ethyl]-2-oxo-4-(trifluoromethyl)pyridin-1-yl}-3,20-dimethyl-15-oxo-8-oxa-16-azatetracyclo[16.3.1.1^{9,13}.0^{2,7}]tricosa-1(22),2(7),3,5,9,11,13(23),18,20-nonaen-17-yl]acetic acid] is 38-fold lower in EC50: 50 nM for the first, 1.3 nM for the second.

First: Cc1cc2cc(c1F)[C@H](CC(=O)O)NC(=O)[C@@H](n1c(=O)c3ccncc3n(C)c1=O)c1cc(ccc1F)Oc1cccc(C)c1-2 (single isomer, unassigned) [Example 69]
Second: Cc1cc2cc(c1F)[C@H](CC(=O)O)NC(=O)[C@@H](n1cc(CCN3CC(F)(F)C3)c(C(F)(F)F)cc1=O)c1cc(ccc1F)Oc1cccc(C)c1-2 (single isomer, unassigned) [Example 45]
The EC50 of the first is 4.7-fold lower: 0.38 nM for the first, 1.8 nM for the second. The first is the more potent here.

First: Cc1cccc2c1-c1cc(c(C)s1)[C@H](CC(=O)O)NC(=O)[C@@H](n1cc(CCN3CC(F)C3)c(C(F)(F)F)cc1=O)c1cc(ccc1F)O2 (single isomer, unassigned) [Example 72]
Second: Cc1cccc2c1-c1cc(Cl)c(F)c(c1)[C@H](CC(=O)O)NC(=O)[C@@H](n1cc(CCN3CC(F)C3)c(C(F)(F)F)cc1=O)c1cc(ccc1F)O2 (relative stereo) [Example 25, [(14R*,17S)-20-chloro-12,19-difluoro-14-{5-[2-(3-fluoroazetidin-1-yl)ethyl]-2-oxo-4-(trifluoromethyl)pyridin-1-yl}-3-methyl-15-oxo-8-oxa-16-azatetracyclo[16.3.1.1^{9,13}.0^{2,7}]tricosa-1(22),2(7),3,5,9,11,13(23),18,20-nonaen-17-yl]acetic acid]
The EC50 of the first is 8-fold higher: 16 nM for the first, 2 nM for the second.

Going from `Cc1ccc2cc1[C@H](n1cc(CCN3CC(F)C3)c(C(F)(F)F)cc1=O)C(=O)N[C@@H](CC(=O)O)c1cc(cc(C)c1F)-c1c(C)cccc1O2` (single isomer, unassigned) [Example 71] to `Cc1cc2cc(c1F)[C@H](CC(=O)O)NC(=O)[C@@H](n1cc(CCN3CC(F)C3)c(C(F)(F)F)cc1=O)c1cc(ccc1Cl)Oc1cccc(C)c1-2` (relative stereo) [Example 59, [(14R*,17S)-12-chloro-19-fluoro-14-{5-[2-(3-fluoroazetidin-1-yl)ethyl]-2-oxo-4-(trifluoromethyl)pyridin-1-yl}-3,20-dimethyl-15-oxo-8-oxa-16-azatetracyclo[16.3.1.1^{9,13}.0^{2,7}]tricosa-1(22),2(7),3,5,9,11,13(23),18,20-nonaen-17-yl]acetic acid], the EC50 falls from 3.5 nM to 1.2 nM (2.9-fold). The second is the more potent here.

First: Cc1cccc2c1-c1cc(C3CC3)c(F)c(c1)[C@H](CC(=O)O)NC(=O)[C@@H](n1cc(CCN3CC(F)C3)c(C(F)(F)F)cc1=O)c1cc(ccc1F)O2 (relative stereo) [Example 24, [(14R*,17S)-20-cyclopropyl-12,19-difluoro-14-{5-[2-(3-fluoroazetidin-1-yl)ethyl]-2-oxo-4-(trifluoromethyl)pyridin-1-yl}-3-methyl-15-oxo-8-oxa-16-azatetracyclo[16.3.1.1^{9,13}.0^{2,7}]tricosa-1(22),2(7),3,5,9,11,13(23),18,20-nonaen-17-yl]acetic acid]
Second: Cc1cc(C(F)(F)F)cc2c1-c1cc(c(F)c(C(F)(F)F)c1)[C@H](CC(=O)O)NC(=O)[C@@H](n1cc(CCN3CC(F)C3)c(C(F)(F)F)cc1=O)c1cccc(c1)O2 (relative stereo) [Example 5, [(14R*,17S)-19-fluoro-14-{5-[2-(3-fluoroazetidin-1-yl)ethyl]-2-oxo-4-(trifluoromethyl)pyridin-1-yl}-3-methyl-15-oxo-5,20-bis(trifluoromethyl)-8-oxa-16-azatetracyclo[16.3.1.1^{9,13}.0^{2,7}]tricosa-1(21),2(7),3,5,9,11,13(23),18(22),19-nonaen-17-yl]acetic acid]
The EC50 of the first is 170-fold lower: 1.9 nM for the first, 330 nM for the second. The first is the more potent here.

`Cc1cc2cc(c1F)[C@H](CC(=O)O)NC(=O)[C@@H](n1cc(CCN(C)C)c(C(F)(F)F)cc1=O)c1cccc(c1)Oc1cccc(C)c1-2` (relative stereo) [Example 23, [(14R*,17S)-14-{5-[2-(dimethylamino)ethyl]-2-oxo-4-(trifluoromethyl)pyridin-1-yl}-19-fluoro-3,20-dimethyl-15-oxo-8-oxa-16-azatetracyclo[16.3.1.1^{9,13}.0^{2,7}]tricosa-1(22),2(7),3,5,9,11,13(23),18,20-nonaen-17-yl]acetic acid] gave an EC50 of 2.3 nM.
